# Experiments:
# Type in all cases: biochemical
# [1] = test system: α-chymotrypsin (CT), reverse micelle-silica encapsulated single-enzyme nanoparticles RM-SEEN-CT (Comparative Example 1); test: Kinetic constants by hydrolysis of MUTMAC, reverse micelle-silica encapsulated RM-SEEN-CT (Comparative Example 1)
# Procedure: Hexane containing 100 mM AOT as surfactant, and a small amount of a 10 mM Bis-Tris propane buffer containing enzymes were added. The amount of the added aqueous solution was adjusted such that its molar concentration was 20 times that of AOT. Then, the enzymes were solubilized to hexane by stirring for 10 minutes. The procedure following the solubilization of the enzymes in hexane was similar to Example 1.
# In the reverse micelle method, which was employed for comparison with the method for manufacturing silica encapsulated single-enzyme nanoparticles according to the present disclosure, condensation of the silica precursor proceeds faster because more water molecules are present around the enzyme. As a result, a thicker silica network will be formed and the Michaelis-Menten constant may increase.
# (§1) The kinetic constants of SEEN-CT (Example 1), RM-SEEN-CT (Comparative Example 1) and free enzyme (free CT) were measured by hydrolysis of MUTMAC. The values were obtained by nonlinear regression based on the least square method.
# [2] = test system: α-chymotrypsin (CT), silica encapsulated single-enzyme nanoparticles SEEN-CT (Example 1); test: Kinetic constants by hydrolysis of MUTMAC, silica encapsulated single-enzyme nanoparticles SEEN-CT (Example 1)
# Procedure: Silica encapsulated single-enzyme nanoparticles were prepared using α-chymotrypsin (CT) as schematically described in FIG. 1. Specifically, the synthesis of the silica encapsulated single-enzyme nanoparticles began with dissolution of the enzyme in an aqueous solution with an organic solvent. CT was dissolved in a 10 mM Bis-Tris propane (pH 7.8) buffer containing 1% isopropanol and 2 mM calcium chloride to a concentration of 1 mg/mL. Subsequently, 2 mM AOT added to hexane of the same volume was mixed with the enzyme solution. After stirring at room temperature for 15 minutes, phase separation was conducted through centrifugation. Only the hexane layer containing the solubilized enzyme was separated and then hexane was evaporated using nitrogen gas to adjust the concentration to 1 mg/mL.
# Next, a mixture solution of TMOS:hexane (1:1) was added to the enzyme-containing hexane solution with a volume of 1% thereof and stored at 4° C. for 17 hours.
# Then, after storing for 1.5 hours at room temperature and adding a 200 mM sodium phosphate buffer (pH 7.8) corresponding to 2 times the volume of the hexane, the mixture was stirred at 250 rpm for 10 minutes. After phase separation occurred through centrifugation, only the aqueous solution layer was separated. Then, impurities were filtered off through a 100-nm filter.
# Subsequently, the enzyme extracted into the aqueous solution phase was stored at 4° C. for 3 days. After the 3 days, unreacted TMOS and AOT molecules were removed while replacing with a 10 mM sodium phosphate buffer using an ultrafiltration device. The as-synthesized silica encapsulated single-enzyme nanoparticles were stored at 4° C. until use.
# as §1
# [3] = test system: α-chymotrypsin (CT), free enzyme (free CT); test: Kinetic constants by hydrolysis of MUTMAC, free enzyme (Free-CT)
# Procedure: as §1
# [4] = RM-SEEN-CT, hydrolysis of MUTMAC, nonlinear regression, least square method
# [5] = SEEN-CT, hydrolysis of MUTMAC, nonlinear regression, least square method
# [6] = nonlinear regression, least square method
smiles,measurement,setting,value
Cc1cc(=O)oc2cc(OC(=O)/C=C/c3ccc([N+](C)(C)C)cc3)ccc12 [MUTMAC],"decrease of catalytic efficiency, kcat/Km, as compared to free CT",[1]; RM-SEEN-CT as compared to free CT,about 48%
same,kcat/Km,"[1]; RM-SEEN-CT, hydrolysis of MUTMAC",3.9 ± 0.1 × 10^5M^−1s^−1
same,Km,[1]; [4],76.8 ± 3.6 µM
same,kcat,[1]; [4],30.3 ± 0.8 s⁻¹
same,"decrease of catalytic efficiency, kcat/Km, as compared to free CT",[2]; SEEN-CT as compared to free CT,21%
same,kcat/Km,"[2]; SEEN-CT, hydrolysis of MUTMAC",6.0 ± 0.1 × 10^5M^−1s^−1
same,Km,[2]; [5],42.4 ± 0.1 µM
same,kcat,[2]; [5],25.4 ± 0.1 s⁻¹
same,kcat/Km,[3],7.6 ± 0.2 × 10^5M^−1s^−1
same,Km,[3]; [6],41.8 ± 0.1 µM
same,kcat,[3]; [6],31.8 ± 0.8 s⁻¹

# Reference: patent US9458448B2, “Manufacturing method for silica encapsulated single-enzyme nanoparticles and single-enzyme nanoparticles manufactured by means of method” (Korea University Research and Business Foundation, priority 2011, dated 2016)
